{"source": "PubChem BioAssay AID256", "about": "(DTP/NCI, 2004)", "system": "CD2F1 mice, L1210 leukemia ip, survival T/C", "experiment": "NCI In Vivo Anticancer Drug Screen. Data for tumor model L1210 Leukemia (intraperitoneal) in CD2F1 (CDF1) mice", "conditions": "higher = longer survival", "in_short": "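Transplantable tumor in mice; compound-treated vs vehicle-treated groups. Read-out = treated/control ratio of the measured endpoint.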", "key": {"[1]": {"conditions": "endpoint: mean survival time, dose: 100.0 mg/kg/injection, schedule: Q01DX001 (ip), vehicle: saline with Tween-80"}, "[2]": {"conditions": "endpoint: mean survival time, dose: 200.0 mg/kg/injection, schedule: Q01DX001 (ip), vehicle: saline with Tween-80"}, "[3]": {"conditions": "endpoint: mean survival time, dose: 400.0 mg/kg/injection, schedule: Q01DX001 (ip), vehicle: saline with Tween-80"}}, "note": "Several values for one entry are separate records, joined by “and”; a condition that tells them apart may be missing. Equal entries are not always repeated. Toxic doses and inconclusive results are not listed."}
{"smiles": "NCCC(O)C(=O)NC1CC(N)C(OC2OC(CN)C(O)C(O)C2O)C(O)C1OC1OC(CO)C(O)C(N)C1O", "note": "(stereo not given)", "values": [{"measurement": "T/C", "setting": "endpoint: mean survival time, dose: 10.0 mg/kg/injection, schedule: Q04DX003 (ip), vehicle: saline", "result": "95 % of control"}, {"measurement": "T/C", "setting": "endpoint: mean survival time, dose: 20.0 mg/kg/injection, schedule: Q04DX003 (ip), vehicle: saline", "result": "90 % of control"}, {"measurement": "T/C", "setting": "endpoint: mean survival time, dose: 40.0 mg/kg/injection, schedule: Q04DX003 (ip), vehicle: saline", "result": "93 % of control"}]}
{"smiles": "COc1ccccc1N=Nc1c(O)n(-c2ccccc2Cl)c(=S)n(-c2ccccc2OC)c1=O", "values": [{"measurement": "T/C", "setting": "endpoint: mean survival time, dose: 25.0 mg/kg/injection, schedule: Q04DX002 (ip), vehicle: saline with Tween-80", "result": "105 % of control"}, {"measurement": "T/C", "setting": "endpoint: mean survival time, dose: 50.0 mg/kg/injection, schedule: Q04DX002 (ip), vehicle: saline with Tween-80", "result": "90 % of control"}, {"measurement": "T/C", "setting": "endpoint: mean survival time, dose: 100.0 mg/kg/injection, schedule: Q04DX002 (ip), vehicle: saline with Tween-80", "result": "94 % of control"}]}
{"smiles": "O=[N+]([O-])c1c[c]([Hg][Cl])c(O)[c]([Hg][Cl])c1", "values": [{"measurement": "T/C", "setting": "endpoint: mean survival time, dose: 12.5 mg/kg/injection, schedule: Q04DX003 (ip), vehicle: saline with Tween-80", "result": "93 % of control"}]}
{"smiles": "C[n+]1ccn(C(CC(=O)O)C(=O)O)c1", "note": "(stereo not given)", "values": [{"measurement": "T/C", "setting": "endpoint: mean survival time, dose: 100.0 mg/kg/injection, schedule: Q04DX003 (ip), vehicle: saline", "result": "101 % of control"}, {"measurement": "T/C", "setting": "endpoint: mean survival time, dose: 200.0 mg/kg/injection, schedule: Q04DX003 (ip), vehicle: saline", "result": "103 % of control"}, {"measurement": "T/C", "setting": "endpoint: mean survival time, dose: 400.0 mg/kg/injection, schedule: Q04DX003 (ip), vehicle: saline", "result": "106 % of control"}]}
{"smiles": "CCOC(=O)COc1ccc(OC)cc1C=O", "values": [{"measurement": "T/C", "setting": "[1]", "result": "93 % of control"}, {"measurement": "T/C", "setting": "[2]", "result": "93 % of control"}, {"measurement": "T/C", "setting": "[3]", "result": "97 % of control"}]}
{"smiles": "CNc1c2c(nc3ccccc13)CCCC2", "values": [{"measurement": "T/C", "setting": "endpoint: mean survival time, dose: 5.0 mg/kg/injection, schedule: Q04DX003 (ip), vehicle: saline with Tween-80", "result": "96 % of control"}]}
{"smiles": "S=c1sc2ccccc2n1CN1CCCCC1", "values": [{"measurement": "T/C", "setting": "[1]", "result": "100 % of control"}, {"measurement": "T/C", "setting": "[2]", "result": "100 % of control"}, {"measurement": "T/C", "setting": "[3]", "result": "108 % of control"}]}
{"smiles": "CO[C@@]12[C@@H]3N[C@@H]3CN1C1=C(C(=O)C(NCC3CCCO3)=C(C)C1=O)[C@@H]2COC(N)=O", "note": "(stereo not given in full)", "values": [{"measurement": "T/C", "setting": "endpoint: mean survival time, dose: 1.5 mg/kg/injection, schedule: Q01DX001 (ip), vehicle: distilled water + Tween-80", "result": "111 % of control"}, {"measurement": "T/C", "setting": "endpoint: mean survival time, dose: 3.0 mg/kg/injection, schedule: Q01DX001 (ip), vehicle: distilled water + Tween-80", "result": "114 % of control and 116 % of control"}, {"measurement": "T/C", "setting": "endpoint: mean survival time, dose: 6.0 mg/kg/injection, schedule: Q01DX001 (ip), vehicle: distilled water + Tween-80", "result": "121 % of control"}, {"measurement": "T/C", "setting": "endpoint: mean survival time, dose: 36.0 mg/kg/injection, schedule: Q01DX001 (ip), vehicle: distilled water + Tween-80", "result": "158 % of control"}]}
{"smiles": "O=c1[nH]c(=S)n2ncnc2[nH]1", "values": [{"measurement": "T/C", "setting": "endpoint: mean survival time, dose: 100.0 mg/kg/injection, schedule: Q01DX009 (ip), vehicle: acetone", "result": "97 % of control"}, {"measurement": "T/C", "setting": "endpoint: mean survival time, dose: 200.0 mg/kg/injection, schedule: Q01DX009 (ip), vehicle: acetone", "result": "103 % of control"}, {"measurement": "T/C", "setting": "endpoint: mean survival time, dose: 400.0 mg/kg/injection, schedule: Q01DX009 (ip), vehicle: acetone", "result": "95 % of control"}]}
{"smiles": "O=C1OCc2ccc3ccccc3c21", "values": [{"measurement": "T/C", "setting": "endpoint: mean survival time, dose: 50.0 mg/kg/injection, schedule: Q01DX001 (ip), vehicle: saline", "result": "97 % of control"}, {"measurement": "T/C", "setting": "endpoint: mean survival time, dose: 100.0 mg/kg/injection, schedule: Q01DX001 (ip), vehicle: saline", "result": "89 % of control"}, {"measurement": "T/C", "setting": "endpoint: mean survival time, dose: 200.0 mg/kg/injection, schedule: Q01DX001 (ip), vehicle: saline", "result": "93 % of control"}, {"measurement": "T/C", "setting": "endpoint: mean survival time, dose: 400.0 mg/kg/injection, schedule: Q01DX001 (ip), vehicle: saline", "result": "93 % of control"}]}
{"smiles": "CCCCCCCCCCCC(=O)NC(=S)Nc1ncccn1", "values": [{"measurement": "T/C", "setting": "endpoint: mean survival time, dose: 100.0 mg/kg/injection, schedule: Q01DX001 (ip), vehicle: other", "result": "93 % of control"}, {"measurement": "T/C", "setting": "endpoint: mean survival time, dose: 100.0 mg/kg/injection, schedule: Q01DX009 (ip), vehicle: other", "result": "91 % of control and 97 % of control"}, {"measurement": "T/C", "setting": "endpoint: mean survival time, dose: 100.0 mg/kg/injection, schedule: Q04DX002 (ip), vehicle: other", "result": "98 % of control"}, {"measurement": "T/C", "setting": "endpoint: mean survival time, dose: 200.0 mg/kg/injection, schedule: Q01DX001 (ip), vehicle: other", "result": "87 % of control"}, {"measurement": "T/C", "setting": "endpoint: mean survival time, dose: 200.0 mg/kg/injection, schedule: Q01DX009 (ip), vehicle: other", "result": "92 % of control and 93 % of control"}, {"measurement": "T/C", "setting": "endpoint: mean survival time, dose: 200.0 mg/kg/injection, schedule: Q04DX002 (ip), vehicle: other", "result": "102 % of control"}, {"measurement": "T/C", "setting": "endpoint: mean survival time, dose: 400.0 mg/kg/injection, schedule: Q01DX001 (ip), vehicle: other", "result": "93 % of control"}, {"measurement": "T/C", "setting": "endpoint: mean survival time, dose: 400.0 mg/kg/injection, schedule: Q01DX009 (ip), vehicle: other", "result": "92 % of control and 101 % of control"}, {"measurement": "T/C", "setting": "endpoint: mean survival time, dose: 400.0 mg/kg/injection, schedule: Q04DX002 (ip), vehicle: other", "result": "87 % of control"}]}
{"smiles": "CC12CCC(O)CC1CCC1C2CCC2(C)C(C3=CC(=O)OC3)CCC12O", "note": "(stereo not given)", "values": [{"measurement": "T/C", "setting": "endpoint: mean survival time, dose: 12.5 mg/kg/injection, schedule: Q04DX003 (ip), vehicle: Klucel (hydroxypropylcellulose) (HPC)", "result": "92 % of control"}, {"measurement": "T/C", "setting": "endpoint: mean survival time, dose: 25.0 mg/kg/injection, schedule: Q04DX003 (ip), vehicle: Klucel (hydroxypropylcellulose) (HPC)", "result": "100 % of control"}, {"measurement": "T/C", "setting": "endpoint: mean survival time, dose: 50.0 mg/kg/injection, schedule: Q04DX003 (ip), vehicle: Klucel (hydroxypropylcellulose) (HPC)", "result": "92 % of control"}]}
{"smiles": "N#CC(CC(=O)OCc1ccccc1)NC(=O)OCc1ccccc1", "note": "(stereo not given)", "values": [{"measurement": "T/C", "setting": "endpoint: mean survival time, dose: 200.0 mg/kg/injection, schedule: Q04DX003 (ip), vehicle: saline with Tween-80", "result": "86 % of control"}, {"measurement": "T/C", "setting": "endpoint: mean survival time, dose: 400.0 mg/kg/injection, schedule: Q04DX003 (ip), vehicle: saline with Tween-80", "result": "94 % of control"}]}
{"smiles": "O=[N+]([O-])c1cc2c(c([N+](=O)[O-])c1)OCOC2", "values": [{"measurement": "T/C", "setting": "endpoint: mean survival time, dose: 100.0 mg/kg/injection, schedule: Q01DX009 (ip), vehicle: saline with Tween-80", "result": "105 % of control"}, {"measurement": "T/C", "setting": "endpoint: mean survival time, dose: 200.0 mg/kg/injection, schedule: Q01DX009 (ip), vehicle: saline with Tween-80", "result": "96 % of control"}]}
{"smiles": "Cc1ccc[n+](CCc2c[nH]c3ccccc23)c1", "values": [{"measurement": "T/C", "setting": "endpoint: mean survival time, dose: 12.5 mg/kg/injection, schedule: Q01DX009 (ip), vehicle: saline with Tween-80", "result": "100 % of control"}, {"measurement": "T/C", "setting": "endpoint: mean survival time, dose: 25.0 mg/kg/injection, schedule: Q01DX009 (ip), vehicle: saline with Tween-80", "result": "96 % of control"}, {"measurement": "T/C", "setting": "endpoint: mean survival time, dose: 25.0 mg/kg/injection, schedule: Q04DX003 (ip), vehicle: saline with Tween-80", "result": "98 % of control"}, {"measurement": "T/C", "setting": "endpoint: mean survival time, dose: 50.0 mg/kg/injection, schedule: Q01DX009 (ip), vehicle: saline with Tween-80", "result": "101 % of control"}, {"measurement": "T/C", "setting": "endpoint: mean survival time, dose: 50.0 mg/kg/injection, schedule: Q04DX003 (ip), vehicle: saline with Tween-80", "result": "95 % of control"}]}
{"smiles": "CCCCCCCCCCCCCCCC(=O)OCC1OC(N2C=CC(=O)CC2=O)C(O)C1O", "note": "(stereo not given)", "values": [{"measurement": "T/C", "setting": "endpoint: median survival time, dose: 13.0 mg/kg/injection, schedule: Q01DX009 (ip), vehicle: saline + alcohol", "result": "174 % of control"}, {"measurement": "T/C", "setting": "endpoint: median survival time, dose: 20.0 mg/kg/injection, schedule: Q01DX009 (ip), vehicle: saline + alcohol", "result": "188 % of control"}, {"measurement": "T/C", "setting": "endpoint: median survival time, dose: 30.0 mg/kg/injection, schedule: Q01DX009 (ip), vehicle: saline + alcohol", "result": "174 % of control"}]}
{"smiles": "Cn1nc(NC=O)c(C#N)c1C#N", "values": [{"measurement": "T/C", "setting": "endpoint: mean survival time, dose: 37.5 mg/kg/injection, schedule: Q04DX002 (ip), vehicle: saline with Tween-80", "result": "102 % of control"}, {"measurement": "T/C", "setting": "endpoint: mean survival time, dose: 75.0 mg/kg/injection, schedule: Q04DX002 (ip), vehicle: saline with Tween-80", "result": "102 % of control"}, {"measurement": "T/C", "setting": "endpoint: mean survival time, dose: 150.0 mg/kg/injection, schedule: Q04DX002 (ip), vehicle: saline with Tween-80", "result": "98 % of control"}]}
